Test results as given in BindingDB's records for doi:10.1016/j.bmcl.2017.09.009 (St. John'S University, 2017).
Several values for one entry are separate records, joined by “and”; a condition that tells them apart may be missing. Identical values can stand only once.

How the values were obtained:
[1] = target: T1, Broad substrate specificity ATP-binding cassette transporter ABCG2 (Homo sapiens, UniProt Q9UNQ0); experiment: (§1) Inhibition of ABCG2 in human H460/MX20 cells assessed as potentiation of mitoxantrone induced antiproliferative activity by measuring mitoxantrone IC50 at 10 uM preincubated for 2 hrs followed by mitoxantrone addition measured after 72 hrs by MTT assay (Rvb = 6.161 +/- 0.172 microM)
T1 sequence (Q9UNQ0 whole entry): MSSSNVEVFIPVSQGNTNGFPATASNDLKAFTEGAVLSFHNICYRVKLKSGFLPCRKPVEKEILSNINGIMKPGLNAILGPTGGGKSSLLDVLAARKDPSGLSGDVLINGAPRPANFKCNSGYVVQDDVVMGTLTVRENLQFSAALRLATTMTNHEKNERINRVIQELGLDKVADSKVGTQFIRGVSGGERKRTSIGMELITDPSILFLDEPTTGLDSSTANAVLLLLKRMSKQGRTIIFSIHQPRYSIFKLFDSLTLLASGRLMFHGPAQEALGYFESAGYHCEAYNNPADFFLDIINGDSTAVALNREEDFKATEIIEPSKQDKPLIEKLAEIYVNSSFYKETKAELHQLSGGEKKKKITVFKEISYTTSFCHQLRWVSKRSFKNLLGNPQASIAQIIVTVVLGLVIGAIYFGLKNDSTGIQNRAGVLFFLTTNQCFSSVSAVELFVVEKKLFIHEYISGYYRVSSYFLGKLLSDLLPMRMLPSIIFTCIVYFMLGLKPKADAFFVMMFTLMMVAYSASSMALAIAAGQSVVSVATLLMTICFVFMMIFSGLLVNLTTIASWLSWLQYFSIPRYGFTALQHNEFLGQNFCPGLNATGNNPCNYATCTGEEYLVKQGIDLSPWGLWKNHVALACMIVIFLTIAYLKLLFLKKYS

[2] = Inhibition of ABCG2 in human H460/MX20 cells assessed as potentiation of mitoxantrone induced antiproliferative activity by measuring mitoxantrone IC50 at 10 uM preincubated for 2 hrs followed by mitoxantrone addition measured after 72 hrs by MTT assay (Rvb = 6.161 +/- 0.172 microM)
[3] = target: T1, Broad substrate specificity ATP-binding cassette transporter ABCG2; experiment: Inhibition of ABCG2 in human H460/MX20 cells assessed as potentiation of mitoxantrone induced antiproliferative activity by measuring mitoxantrone IC50 at 3 uM preincubated for 2 hrs followed by mitoxantrone addition measured after 72 hrs by MTT assay (Rvb = 6.161 +/- 0.172 microM)
[4] = Inhibition of ABCG2 in human H460/MX20 cells assessed as potentiation of mitoxantrone induced antiproliferative activity by measuring mitoxantrone IC50 at 1 uM preincubated for 2 hrs followed by mitoxantrone addition measured after 72 hrs by MTT assay (Rvb = 6.161 +/- 0.172 microM)
[5] = Inhibition of ABCG2 in human H460/MX20 cells assessed as potentiation of mitoxantrone induced antiproliferative activity by measuring mitoxantrone IC50 at 3 uM preincubated for 2 hrs followed by mitoxantrone addition measured after 72 hrs by MTT assay (Rvb = 6.161 +/- 0.172 microM)
[6] = as above; remark: listed apart in the source
[7] = target: T1, Broad substrate specificity ATP-binding cassette transporter ABCG2; experiment: ChEBML_1696291; experimental: as §1

Row | SMILES | IC50 [2] [nM] | IC50 [4] [nM] | IC50 [5] | also measured
1 | COc1cccc(-n2nnc(-c3ccccc3NC(=O)c3ccccc3[N+](=O)[O-])n2)c1 |  |  |  | IC50 [1]: 1100 nM
2 | COc1cccc(-n2nnc(-c3ccccc3NC(=O)c3ccc(NC(=O)CBr)cc3)n2)c1 | 283 |  |  | IC50 [3]: 446 nM
3 | COc1cccc(-n2nnc(-c3ccccc3NC(=O)Nc3ccc(N)cc3)n2)c1 | 379 | 838 |  | 
4 | CCCc1ccc(NC(=O)c2ccccc2NC(=O)Nc2ccccc2[N+](=O)[O-])cc1 |  |  | 2560 nM | IC50 [1]: 1120 nM
5 | COc1cccc(-n2nnc(-c3ccccc3NC(=O)c3ccc(NC(C)=O)cc3)n2)c1 | 1200 | 1360 |  | IC50 [6]: 1320 nM
6 | COc1cccc(-n2nnc(-c3ccccc3NC(=O)c3ccc(N=[N+]=[N-])cc3)n2)c1 |  | 1620 | 1500 nM | 
7 | COc1ccc(-n2nnc(-c3ccccc3NC(=O)Nc3ccc([N+](=O)[O-])cc3)n2)cc1 |  |  | 541 nM | IC50 [1]: 331 nM
8 | COc1cccc(-n2nnc(-c3ccccc3NC(=O)Nc3ccc(N=[N+]=[N-])cc3)n2)c1 |  | 913 |  | 
9 | CCCc1ccc(NC(=O)c2ccccc2NC(=O)Nc2ccc(Br)cc2)cc1 |  | 2660 |  | IC50 [3]: 2120 nM
10 | CCCc1ccc(NC(=O)c2ccccc2NC(=O)c2ccc(OC)cc2)cc1 | 1660 |  |  | 
11 | COc1cccc(-n2nnc(-c3ccccc3NC(=O)Nc3ccc(N=C=S)cc3)n2)c1 |  |  | 667 nM | 
12 | CCCc1ccc(C(=O)Nc2ccccc2-c2nnn(-c3cccc(OC)c3)n2)cc1 | 131 |  |  | 
13 | CCCc1ccc(NC(=O)c2ccccc2NC(=O)Nc2ccc(OC)cc2)cc1 |  | 3370 |  | IC50 [1]: 985 nM
14 | COc1cccc(-n2nnc(-c3ccccc3NC(=O)Nc3ccc(NC(C)=O)cc3)n2)c1 | 325 |  |  | 
15 | COc1cccc(-n2nnc(-c3ccccc3NC(=O)c3cccc([N+](=O)[O-])c3)n2)c1 |  | 1800 |  | 
16 | COc1ccc(C(=O)Nc2ccccc2-c2nnn(-c3ccc(OC)cc3)n2)cc1 | 492 | 746 | 505 nM | 
17 | COc1cccc(-n2nnc(-c3ccccc3NC(=O)Nc3ccc([N+](=O)[O-])cc3)n2)c1 | 403 |  |  | 
18 | CCCc1ccc(NC(=O)c2ccccc2NC(=O)Nc2cccc([N+](=O)[O-])c2)cc1 |  | 651 |  | 
19 | COc1cccc(-n2nnc(-c3ccccc3NC(=O)c3ccc(N=C=S)cc3)n2)c1 |  |  | 1050 nM and 952 nM | 
20 | CCCc1ccc(NC(=O)c2ccccc2NC(=O)c2ccc([N+](=O)[O-])cc2)cc1 |  | 833 | 783 nM | IC50 [1]: 594 nM
21 | COc1cccc(-n2nnc(-c3ccccc3NC(=O)Nc3ccc(NC(=O)CBr)cc3)n2)c1 |  | 798 |  | IC50 [1]: 472 nM
22 | COc1cccc(-n2nnc(-c3ccccc3NC(=O)c3ccc(N)cc3)n2)c1 | 299 |  |  | IC50 [3]: 491 nM
23 | COc1cccc(-n2nnc(-c3ccccc3NC(=O)Nc3ccccc3[N+](=O)[O-])n2)c1 | 882 |  | 978 nM | 
24 | O=C(Nc1ccc([N+](=O)[O-])cc1)Nc1ccccc1C(=O)Nc1ccc(C(F)(F)F)cc1 | 452 |  |  | IC50 [7]: 711 nM
25 | COc1ccc(-n2nnc(-c3ccccc3NC(=O)c3ccc([N+](=O)[O-])cc3)n2)cc1 | 378 | 587 |  | IC50 [6]: 535 nM
26 | COc1ccc2c3c([nH]c2c1)[C@H](C=C(C)C)N1C(=O)[C@@H]2CCCN2C(=O)[C@@H]1C3 [Fumitremorgin C] |  | 612 | 451 nM | 
27 | CCCc1ccc(NC(=O)c2ccccc2NC(=O)Nc2ccc([N+](=O)[O-])cc2)cc1 |  | 622 | 482 nM | 
28 | COc1cccc(-n2nnc(-c3ccccc3NC(=O)c3ccc([N+](=O)[O-])cc3)n2)c1 |  | 585 |  | 
